The subject of data set [1] is hemopoietic stem cells (HSC). The data set is described as follows: Investigation of the effect on hemopoietic stem cell: release into the blood (exogenous colony formation). It is filed as in vivo, mice. The settings on record: statement in words. The method, then:
Investigation of the effect on hemopoietic stem cell
Compound I was diluted in physiological saline solution to a concentration of […]. Mice of the experimental groups were inoculated with 0,2 ml of one of the obtained solutions (0,5 and 1 μg/mouse respectively) intraperitoneally. Control animals were given injections of physiological saline solutions. At 1, 2, 3, 4 and 7 days after administration of the test compound, the animals were given heparin (40 units/mouse), and then specimens of the peripheral blood, spleen and bone marrow from thighbones. The blood was diluted 1:1 with physiological saline solution. Bone marrow and spleen suspensions were prepared by the standard method. The content of hemopoietic stem cells (HSC) in the blood, bone marrow and spleens of the animals treated with the preparation were tested by the method of exogenous colony formation in the spleen of syngeneic lethally irradiated recipients; more specifically, diluted peripheral blood (0,1 ml), bone marrow cells (3-5 ×10^4 cells) or spleen cells (5×10^5 cells) were inoculated to lethally irradiated syngeneic recipients which were killed at 8-9 days; their spleens were removed, fixed in Bouin's solution, and the number of visible plaques or colonies developing from HSC was counted.

Data set [2] has as its system hemopoietic stem cells (HSC). The experiment in a line: Effect on proliferation of HSC (S-phase, oxyurea treatment). Format: in vivo, mice. The settings on record: statement in words.
For another data set, the system named is distemper. The data set is described as follows: Investigation of clinical effectiveness in dogs with distemper. The settings on record: 2-4 ml of 0,5% solution intramuscularly twice daily for 3-10 days. Format: in vivo. The method, then: Investigation of clinical effectiveness in dogs with distemper
Dogs with an established diagnosis of distemper (duration of the disease from 10 to 30 days; in 3 animals--the intestinal form of the disease, in 2- pulmonary form, and in 3 animals--the neuro-paralytic stage) were inoculated intramuscularly with 2-4 ml (depending on the animal's weight) of 0,5% solution of the test compound I in distilled water twice daily for 3-10 days.

Data set [3] relates to α, β, γ interferons in mouse serum.
Method: Investigation of induction of α, β, γ interferons in mouse serum in vivo
The level of interferon synthesis in the blood serum was determined at various intervals (5, 24, 48, 72 hours). Interferon titrations were carried out in L-929 cell cultures. The test virus was mouse encephalomyocarditis virus.
Another data set is described as follows: acute toxicity in mice. Format: in vivo. The method, then: The novel complex has low toxicity. In investigations of acute toxicity in mice, the LD50 is 900 mg per kilo body weight.
For data set [4], the system named is Staphylococcus aureus Wood 46. The experiment in a line: Investigation of the staphylococcal activity. Format: in vivo, CBA mice infected with Staphylococcus aureus Wood 46. The settings on record: dose of 1 μg; statement in words. How it is done:
Investigation of the staphylococcal activity
The preparation was inoculated subcutaneously to CBA mice in doses from 0,1 to 10 μg per mouse, after which the animals were inoculated with 1,25×10^6 microbial cells of Staphylococcus aureus Wood 46.

The subject of data set [5] is interferon. The settings on record: statement in words; cited from earlier work.
For data set [6], the system named is interferon. The settings on record: mice, oral administration; cited from earlier work.
The subject of another data set is γ-interferon. The settings on record: suspension of mononuclear cells in vitro; cited from earlier work.

As usually defined, the LD50 is the dose at which mortality reaches 50%. A high value points to lower toxicity.

As to `O=C1[O][Ge]2([O]C(=O)c3cccc1n3)[O]C(=O)c1cccc(n1)C(=O)[O]2` [Compound I, germanium bis(pyridine-2,6-dicarboxylate)], the “number of HSC in the blood” value in data set [1] was “increases the number of HSC in the blood”. Moreover, the “capacity to stimulate HSC release into the S-phase” value in [2] was “No capacity to stimulate HSC release into the S-phase was demonstrated”. For the same compound, the solubility in chloroform entry in the data set “solubility” (chloroform) is “insoluble”. For the same compound, in the data set “solubility” (diethylformamide), the solubility in diethylformamide entry was “moderately soluble”. Also, the “solubility in dimethyl sulphoxide” value in the data set “solubility” (dimethyl sulphoxide) is “moderately soluble”. Also, the solubility in ethanol entry in the data set “solubility” (ethanol) is “insoluble”. Also, the solubility in ether entry in the data set “solubility” (ether) is recorded as “insoluble”. The solubility in hydrocarbons result in “solubility” (hydrocarbons) is on record as “insoluble”. Also, the solubility in water entry in “solubility” (water) is recorded as “moderately soluble”. Moreover, the clinical outcome with distemper is reported as “all the animals became clinically normal”. In [3] (at later intervals postinoculation), the “γ interferon in serum” value is “at later intervals γ interferon”. The “interferons α and β in serum” value in [3] (within the first 5 hours postinoculation) is “detectable”. The LD50 in “acute toxicity in mice” (mouse, in vivo, mice, acute toxicity) came to 900 mg/kg. The toxicity entry in “acute toxicity in mice” (statement in words) was “low toxicity”. Moreover, in [4], the “resistance of mice to staphylococcus” value is “enhances the resistance of mice to staphylococcus”.
For `CCC[O][Ge]1([OH])[O]C(=O)c2cccc(n2)C(=O)[O]1` [2,6-pyridinediyl-biscarbonylox-(hydroxypropoxygermanium)], in the data set on interferon [5], the “immune interferon inducer properties” value was “possessing the properties of an immune interferon inducer” and the immunomodulating activity entry was “narrow spectrum of the immunomodulating activity”.
As for `O=C(O)C[CH2][Ge](=[O])[O][Ge](=[O])[CH2]CC(=O)O` [carboxyethylgermanium-sesquioxide], in the data set on interferon [5], the “effectiveness as an immune interferon inducer” value is listed as “low effectiveness as an immune interferon inducer” and the toxicity result is “has toxicity”. In addition, the “interferon production in the blood” value with interferon [6] is reported as “capable, upon oral administration, of inducing interferon production in the blood of mice”. Besides, the γ-interferon synthesis result in the data set with γ-interferon is given as “capable of inducing γ-interferon synthesis”.
